Laboratory results: patent US8425918B2, “Use of EDTA and its derivatives for prevention and treatment of bacterial intestinal diseases of pigs and for increasing the effects of antibiotics exerted in such diseases” (Pharmatéka Gyártó´és Kereskedelmi BT, priority 2007, dated 2013)

Columns and labels:
Brachyspira infection [1] = assay: Example 5.3: lincomycin nourishment with or without EDTA Na2 salt, livestock with bloody diarrhoea partly resistant to lincomycin; format: in vivo, pigs
Description: (§1) Testing of Compositions Comprising EDTA on Pigs Suffering from Bloody Diarrhoea (Brachyspira Infection)
At a pig farm infected with the pathogen a nourishment comprising 110 ppm of lincomycin was fed with the livestock suffering from bloody diarrhoea. […] The livestock was separated proportionally, and in the test group 240 ppm of EDTA Na2 salt was admixed to the nourishment, utilizing the premix according to Example 1.

Brachyspira infection [2] = assay: Example 5.4: lincomycin-resistant animals, lincomycin therapy maintained plus EDTA Na2 in drinking water; format: in vivo, pigs
Description: as §1
In a part of the lincomycin-resistant animals belonging to the livestock according to Example 5.3, no treatment with another antibiotic was performed, but lincomycin therapy was maintained and simultaneously drinking water comprising 60 ppm of EDTA Na2 was added to the animals.

Brachyspira infection [3] = assay: Example 5.2: treatment of pigs suffering from bloody diarrhoea, EDTA Na2 in drinking water; format: in vivo
Description: as §1
Pigs suffering from bloody diarrhoea, husbanded on the farm according to Example 5.1, were treated with EDTA Na2 in such a way that 200 ppm of EDTA Na2 were dissolved in the drinking water of the animals. […] In the control group where on the day following the cease of diarrhoea the animals were returned to drinking of pure water bloody diarrhoea reappeared after 4 days.

Brachyspira infection [4] = assay: Example 5.1: prevention of bloody diarrhoea, EDTA Na2 salt in the fodder on an infected pig farm; format: in vivo, pigs; details: 240 ppm EDTA Na2 salt in fodder via premix of Example 1
Description: as §1
On a pig farm infected with the pathogen 3 test groups of 20 animals each and one control group of 20 animals were formed from 90 days old piglets. The fodder of the animals belonging to the test groups was complemented throughout the test period (which lasted to slaughtering) with 240 ppm of EDTA Na2 salt utilizing the premix as described in Example 1.

Brachyspira infection [5] = assay: Example 5.5: prevention in weaned piglets with complemented nourishment; format: in vivo, pigs; details: test group: nourishment with 240 ppm EDTA Na2, 22 ppm essential oils (1:1 oregano oil and thyme oil) and 100 ppm tannic acid
Description: Testing of Compositions Comprising EDTA on Pigs Suffering from Bloody Diarrhoea (Brachyspira Infection) At a pig farm with frequently occurring bloody diarrhoea three groups were formed randomly from weaned piglets at switching to solid nourishment. In the first group (test group) the animals were fed continuously with a nourishment comprising 240 ppm of EDTA Na2, 22 ppm of essential oils (1:1 mixture of oregano oil and thyme oil) and 100 ppm of tannic acid. In the second group (control group 1) the animals were fed continuously with a nourishment comprising essential oils and tannic acid in the above amounts but free of EDTA Na2. In the third group (control group 2) no EDTA Na2, essential oils or tannic acid were added to the nourishment of the animals. After a certain period of time soft faeces and then bloody diarrhoea appeared in the animals of control group 2 (fed with a nourishment without completion). Bacteria of Brachospira type were detected in the faeces.

Compound: O=C([O-])CN(CCN(CC(=O)[O-])CC(=O)O)CC(=O)O.[Na+].[Na+] [EDTA Na2 salt]
- cessation of bloody diarrhoea (Brachyspira infection [1]; 240 ppm EDTA Na2 salt (premix of Example 1) admixed to nourishment comprising 110 ppm lincomycin): completely ceased on the third day
- later occurrence of bloody diarrhoea (Brachyspira infection [1]; continued feeding with fodder comprising EDTA Na2 salt): no bloody diarrhoea occurred
- pathogenic bacteria in the faeces (Brachyspira infection [2]; 60 ppm EDTA Na2 in drinking water with lincomycin): No pathogenic bacteria could be detected
- cessation of diarrhoea (Brachyspira infection [2]; 60 ppm EDTA Na2 in drinking water, lincomycin therapy maintained, lincomycin-resistant animals): ceased completely within some days
- reoccurrence of diarrhoea (Brachyspira infection [2]; after terminating lincomycin, EDTA Na2 in drinking water continued): did not reoccur
- cessation of bloody diarrhoea (Brachyspira infection [3]; 200 ppm EDTA Na2 dissolved in drinking water): ceased on the third day
- time to reappearance of bloody diarrhoea after withdrawal (Brachyspira infection [3]; animals returned to pure water on the day following the cease of diarrhoea): 4 days
- reoccurrence of bloody diarrhoea (Brachyspira infection [3]; while 200 ppm EDTA Na2 was maintained in the drinking water): did not reoccur
- appearance of bloody diarrhoea (Brachyspira infection [4]; 90 days old piglets, until slaughtering): No bloody diarrhoea appeared
- need for antibiotic treatment (Brachyspira infection [4]; compared with the other animals of the farm): no antibiotic treatment of the animals of the test groups was required
- abnormal biological symptoms (soft faeces, bloody diarrhoea) (Brachyspira infection [5]): no abnormal biological symptom could be observed

Compound: CCC[C@@H]1C[C@@H](C(=O)N[C@@H]([C@H]2O[C@H](SC)[C@H](O)[C@@H](O)[C@H]2O)[C@@H](C)O)N(C)C1 [lincomycin, reference compound]
- persistence of bloody diarrhoea (Brachyspira infection [1]; control group: nourishment comprising 110 ppm lincomycin without EDTA Na2 salt): bloody diarrhoea still persisted
